According to ChEMBL document CHEMBL3352609, “Synthesis of new 1-(4-methane(amino)sulfonylphenyl)-5-(4-substituted-aminomethylphenyl)-3-trifluoromethyl-1H-pyrazoles: a search for novel nitric oxide donor anti-inflammatory agents” (2014):

Experiments:
Format in all cases: functional
Rattus norvegicus [1] = assay: Anti-inflammatory activity in carrageenan-induced rat foot paw edema model assessed as reduction in paw volume at 20 mg/kg dosed 30 mins before carrageenan injection and measured 1 hr after carrageenan challenge
Rattus norvegicus [2] = assay: Anti-inflammatory activity in carrageenan-induced rat foot paw edema model assessed as reduction in paw volume at 20 mg/kg dosed 30 mins before carrageenan injection and measured 5 hrs after carrageenan challenge
Rattus norvegicus [3] = assay: Anti-inflammatory activity in carrageenan-induced rat foot paw edema model assessed as reduction in paw volume at 20 mg/kg dosed 30 mins before carrageenan injection and measured 3 hrs after carrageenan challenge

Row | SMILES | inhibition in vivo at 20 mg/kg (Rattus norvegicus [1]) | inhibition in vivo at 20 mg/kg (Rattus norvegicus [2]) | inhibition in vivo at 20 mg/kg (Rattus norvegicus [3])
1 | CS(=O)(=O)c1ccc(-n2nc(C(F)(F)F)cc2-c2ccc(CN3CCNCC3)cc2)cc1 | 67% | 66% | 73%
2 | CNCc1ccc(-c2cc(C(F)(F)F)nn2-c2ccc(S(N)(=O)=O)cc2)cc1 | 54% | 57% | 69%
3 | Cc1ccc(-c2cc(C(F)(F)F)nn2-c2ccc(S(N)(=O)=O)cc2)cc1 [CELECOXIB] | 40% | 48% | 80%
4 | CCNCc1ccc(-c2cc(C(F)(F)F)nn2-c2ccc(S(C)(=O)=O)cc2)cc1 | 66% | 66% | 72%
5 | CS(=O)(=O)c1ccc(-n2nc(C(F)(F)F)cc2-c2ccc(CN3CCN(N=O)CC3)cc2)cc1 | 19% | 29% | 43%
6 | CNCc1ccc(-c2cc(C(F)(F)F)nn2-c2ccc(S(C)(=O)=O)cc2)cc1 | 72% | 67% | 89%
7 | NS(=O)(=O)c1ccc(-n2nc(C(F)(F)F)cc2-c2ccc(CN3CCNCC3)cc2)cc1 | 58% | 35% | 70%
8 | CCN(Cc1ccc(-c2cc(C(F)(F)F)nn2-c2ccc(S(C)(=O)=O)cc2)cc1)N=O | 24% | 25% | 39%
9 | CCNCc1ccc(-c2cc(C(F)(F)F)nn2-c2ccc(S(N)(=O)=O)cc2)cc1 | 53% | 39% | 71%
